Assay [1] relates to RT4 human bladder cancer cells. Put plainly: In vitro viability (MTT) of CTRL versus PD-L1^KO RT4 cells. It counts as cell-based. Particulars: monotherapy. As to the method: (§1) Cells (1×10^3) were plated in 96 well plastic culture plates in respective medium and treated for 5 days with DDRi or 3 days with gemcitabine at indicated concentrations. Drug concentrations were carefully optimized in preliminary work not shown. Cell viability was by MTT (3-(4,5-dimethylthiazol-2-yl)-2,5-diphenyl tetrazolium bromide) at 5 mg/ml. Absorbance was measured at 540 nm. Results are presented as a mean+/−SEM of ≥6 replicates. Total cells and viability were confirmed using a Vi-Cell-XR (Beckman Coulter).

Assay [2] relates to ID8agg murine ovarian cancer cells. Nature of the assay: In vitro viability (MTT) of CTRL versus PD-L1^KO ID8agg cells. The format is cell-based, mouse. Particulars: monotherapy. As to the method: as §1
Assay [3] has as its system 4T1 murine breast cancer cells. Nature of the assay: In vitro viability (MTT) of CTRL versus PD-L1^lo 4T1 cells. The format is cell-based, mouse. The method, then:
as §1

The next assay concerns RT4 cells. Nature of the assay: Chk1 inhibitor synthetic lethality with beta-lactam antibiotics, RT4 cells. It counts as cell-based, human. Particulars: for synthetic lethality with Chk1i: RT4 cells, Chk1i rabusertib. As to the method: Additional experiments were performed, as follows. MB49 were plated at 2,000 cells/well in 96 well flat bottom plates and treated with PD-L1 depleting drugs, olaparib (2.5 μM), and combination for 96 hours. RT4 were plated at 2,000 cells/well in 96 well flat bottom plates and treated with cefepime, rabusertib (1 μM), praxasertib, or combination for 96 hours. ID8agg, 4T1, and B16 cells were plated on fibronectin at 500 cells/well and treated with cefepime, rabusertib, or combination for 96 hours. Normalized treatment combination to DDR inhibitor alone, and PD-L1 depleting drug to vehicle alone (DMSO) were evaluated.

The next assay has as its system PD-L1 in OVCAR5 cells. Put plainly: PD-L1 mRNA, protein and ubiquitination in OVCAR5 cells. The format is cell-based, human. Particulars: OVCAR5 cells. As to the method:
FIGS. 39A-C: CAMB reduces PD-L1 through ubiquitination. FIG. 39A, RT-qPCR for PD-L1 mRNA in OVCAR5 and ID8agg cells treated with (+) or without (−) chlorambucil for 48 hours. (n=4). FIG. 39B, Western blot for PD-L1 protein in OVCAR5 cells with (+) or without (−) MG132 for 6 or 20 hours. (upper panel). PD-L1 expression in OVCAR5 cells treated with chlorambucil 48 hours and/or MG132 for 6 hours (lower panel). FIG. 39C, Ubiquitinated PD-L1 was immunoprecipitated (IP) and subjected to Western blot analysis with anti-ubiquitin (Ub) antibody. Cells were treated with chlorambucil for indicated times prior to ubiquitination analysis.
(§2) Western blotting and immunoprecipitation: To prepare whole cell lysates, cells were harvested and lysed in RIPA (radioimmunoprecipitation assay) buffer plus 1 mM phenylmethylsulphonyl fluoride and Halt protease/phosphatase inhibitor cocktail (Thermo Scientific) at 4° C. Protein concentrations were measured by BCA Protein Assay Kit (Thermo Scientific). Protein was run on precast 4-15% sodium dodecyl sulfate polyacrylamide gels (Bio-Rad), transferred to polyvinylidene fluoride membranes (GE Water and Process Technologies), and then blocked in 5% non-fat milk for 1 hour at room temperature. The membranes were then incubated with 1:1000 diluted primary antibodies against indicated proteins (Cell Signaling). Specific antibody binding was detected by chemiluminescence using Western Lightening Plus regent (Perkin Elmer). Cells for (co) immunoprecipitation experiments were seeded in 15-cm dishes and cultured as described, using 6 million cells per immunoprecipitation reaction. For protein ubiquitination, cells were lysed in denaturing buffer (50 mM Tris-HCl, 0.5 mM EDTA and 1% SDS) followed by heating at 95° C. for 10 minutes and then quenched with 9 volumes of quenching buffer (0.5% Triton X-100, 20 mM Tris-HCl (pH 8.0), 137 mM NaCl, 10% glycerol, 2 mM EDTA). Protease inhibitor cocktail (Roche) was added fresh to all buffers. Cell lysates were incubated on a rotator for 30 minutes at 4° C., and then centrifuged at 20,000 g for 15 minutes at 4° C. Supernatants were subsequently incubated with anti-PD-L1 antibody overnight and processed using Dynabeads Protein G for Immunoprecipitation (Thermo Fisher Scientific). The final eluate was processed and Western blotting was performed.
Quantitative Real-Time Reverse Transcriptase Polymerase Chain Reaction: Total RNA was isolated from homogenized whole lung tissue with Trizol reagent (Invitrogen) according to manufacturer instructions. […] Quantitative PCR (qPCR) was conducted using the Bio-Rad Real-Time PCR System (Applied Biosystems), amplified with transcript-specific primers with SYBR Green (Thermo Scientific), according to manufacturer instructions. […]

In another assay the test system is PD-L1. Put plainly: Tumor cell PD-L1 depletion by drugs (flow cytometry, immunoblot). The format is cell-based, human and mouse. Particulars: for expression of PD-L1 in cancer cells: summary statement. The method, then:
High throughput Screening: B16 PD-L1 RFP cells were treated with 2.5 and 10 μM compounds from the Prestwick and LOPAC Libraries for 48 hours using the Agilent Bravo liquid pipetting platform. Then, cells were washed with PBS, and fixed with 4% paraformaldehyde (Electron Microscopy Sciences, Hatsfield, PA, Cat 15714S) and labeled with 2 μg/ml DAPI, (Molecular Probes, Cat D1306) and 1 μg/ml Cell Mask-Blue (Invitrogen, Cat. H32720). Plates were then imaged using the Operetta High Content Imaging System, Perkin Elmer, Waltham (DAPI and Cell Mask Blue, Ex 360-400, Em 410-480), and the RFP channels (Ex 520-550, Em 560-630) channels. Agents effecting ≥2-fold PD-L1 reduction in the RFP reporter without loss of ≥20% cell viability were candidate PD-L1 depletion agents.
Flow cytometry: Mice were sacrificed by cervical dislocation after induction of deep isoflurane anesthesia. ID8agg tumors were collected and cells were stained as described (Derup et al., 2020) using LSR II hardware and analyzed by FACS Diva (BD Bioscience) or Flow Jo software (Flow Jo, LLC). Anti-mouse (clone 10F.9G2) and human (clone 29E.2A3) PD-L1 [both PE/Cy7, Cat #124314 (mouse) 329718 (human)] were matched with isotype control. Apoptosis assessment used Annexin V and propidium iodide (Thermo Scientific) per manufacturer instruction.
as §2
(In flow cytometry, cells or beads pass a laser one at a time.)

In another assay the test system is mTORC1. Nature of the assay: Western blots for mTORC1 pathway and LC3 autophagy. The format is cell-based. The method, then:
FIGS. 40A-C: CAMB suppresses mTORC1 signals and reduces TIC numbers. FIG. 40A, Western blots for proteins in the mTORC1 pathway. Cells were treated with chlorambucil as indicated concentration for 48 hours. FIG. 40B, Western blot for LC3I/II to assess autophagy in cell lysates treated±chlorambucil at indicated concentrations. FIG. 40C, Percent of ALDH^hi TIC by flow cytometry of ES2 cells cultured±chlorambucil. Percent CD44^+CD24^+ ID8agg TIC and CD44^+CD133^+CD24^+ B16 TIC detected by flow cytometry.
as §2
A general note: In western blotting, separated proteins are transferred to a membrane and probed.

Assay [4] relates to PD-L1, Chk2, gH2AX in RT4 cells. Put plainly: Cefepime depletion of PD-L1 and Chk2, DNA damage (gH2AX). The format is cell-based, human. As to the method:
Experiments were performed to see if beta-lactam antibiotics may deplete PD-L1 in cancer cells. RT4 cells were incubated at 80 μM cefepime.
Next experiments were performed to see if beta-lacatam antibiotics can deplete Chk2 in vitro. RT4 cells were treated with 1 μM rabusertib (Chk1i), 75 μM cefepime (D7), or combination. Protein lysates were collected at 24, 48, 72, and 96 hours.

For assay [5], the system named is UV induced TpN^61R derived CD274^+/+ or CD274^−/− melanoma cells. Put plainly: Viability of de novo Nras CD274^+/+ versus CD274^−/− melanoma cells. Particulars: in vitro. The format is cell-based, mouse. The text has this: FIGS. 26A-H: De novo PD-L1^KO tumors phenocopy important aspects of genetic PD-L1 depletion in established tumors. FIG. 26A, Melanoma-free survival of melanocyte specific CD274^fl,fl TpN^61R (KO) versus littermate (WT) autochthonous mice under conditions shown. FIG. 26B, Validation of PD-L1 expression by immunoblot (IB) of melanoma cells derived from UV induced (4.5 Kj/m^2) WT (CD274^+/+) or melanocyte specific CD274^KO (CD274^−/−) mice±in vitro interferon (IFN)-γ treatment. Viability curves of CD274^+/+ versus CD274^−/− cells treated with the selective Chk1 inhibitors FIG. 26C, prexasertib […] or FIG. 26D, rabusertib (LY2603618) in vitro at indicated concentrations. FIG. 26E, IB analysis of PD-L1, ATM, Chk2, and γH2AX of vehicle or rabusertib-treated CD274^+/+ and CD274^−/− cell lines. FIGS. 26F-H, Tumor growth curves in WT C57BL/6J mice (n=10 tumors/group) challenged with UV induced TpN^61R derived CD274^+/+ or CD274^−/− melanoma cells and treated with rabusertib (Chk1i, LY2603618) on the indicated treatment schedule. P values, two-way ANOVA.

Residues, ends and D or L forms follow the SMILES beside them. *: point of attachment. Cbz = O=C(OCc1ccccc1)*

With `CN(C)CCCOc1ccc(-c2ccc3ncc4c(c3c2)n(C2CCOCC2)c(=O)n4C)cn1` [AZD0156], in assay [1], the “sensitivity of PD-L1^KO versus control RT4 cells to the agent” value is “Minimal effects”. The “sensitivity of PD-L1^KO versus control ID8agg cells to the agent” value in [2] is given as “Minimal effects”.

Take `C[C@@H]1COCCN1c1cc(C2([S@](C)(=N)=O)CC2)nc(-c2cc[nH]c3nccc2-3)n1` [AZD6738]: the “sensitivity of PD-L1^KO versus control ID8agg cells to the agent” value in assay [2] (listed as ATRi) was “enhanced sensitivity”. For the same compound, the “sensitivity of PD-L1^lo versus control 4T1 cells to the agent” value in assay [3] is “enhanced sensitivity”.

Consider `CO/N=C(\C(=O)N[C@@H]1C(=O)N2C(C(=O)O)=C(CSc3nc(=O)c(=O)[nH]n3C)CS[C@H]12)c1csc(N)n1` [Ceftriaxone], for which, in the assay with RT4 cells, the “synthetic lethality with Chk1i” value is given as “not as effective”.

In the case of `CC(C)C[C@@H](C=O)NC(=O)[C@H](CC(C)C)NC(=O)[C@H](CC(C)C)NC(=O)OCc1ccccc1` [MG132] (Cbz-Leu-Leu-Leu-aldehyde), the “effect on CAMB-mediated PD-L1 reduction” value with PD-L1 in OVCAR5 cells was “abolished CAMB-mediated PD-L1 reduction”. In addition, the PD-L1 expression entry in the assay with PD-L1 in OVCAR5 cells (by 6 hours after treatment) was “increased PD-L1 expression”.

As for `Nc1nc2c(ncn2CCOCP(=O)(O)O)c(=O)[nH]1` [PMEG, 9-(2-phosphonylmethoxyethyl) guanine], in the assay with PD-L1 (over 2-3 days, human and mouse tumor lines), the “effect on cell viability” value is given as “little effect on cell viability”. The “expression of PD-L1 in cancer cells” value with PD-L1 is reported as “decreased expression of PD-L1”. Further, in the assay with mTORC1, the autophagy result is on record as “promote autophagy” and the mTORC1 signals result is given as “suppress mTORC1 signals”.

For the compound `CC1(C)S[C@@H]2[C@H](NC(=O)Cc3ccccc3)C(=O)N2[C@H]1C(=O)O` [Penicillin G], the “synthetic lethality with Chk1i” value in the assay on RT4 cells was “not induce synthetic lethality”.

`Cc1nnc(SCC2=C(C(=O)O)N3C(=O)[C@@H](NC(=O)Cn4cnnn4)[C@H]3SC2)s1` [cefazolin]: the “synthetic lethality with Chk1i” value in the assay on RT4 cells is “not as effective”.

Turning to `CO/N=C(\C(=O)N[C@@H]1C(=O)N2C(C(=O)[O-])=C(C[N+]3(C)CCCC3)CS[C@H]12)c1csc(N)n1` [cefepime], the “expression of PD-L1 in cancer cells” value in the assay with PD-L1 is given as “decreased expression of PD-L1”. In addition, in assay [4] (FIGS. 44A-B, cells not given), the Chk2 entry was “depleted”; the “DNA damage, as measured via gH2AX” value is listed as “increased DNA damage”; the PD-L1 result is on record as “depleted”. For the same compound, the Chk2 in vitro entry in assay [4] (RT4 cells, 75 μM, 24-96 hours) was “deplete Chk2”. In addition, in assay [4] (RT4 cells, 80 μM), the “PD-L1 expression in vitro” value is given as “deplete PD-L1 expression”. In addition, in the assay with RT4 cells (FIG. 46B, cells not given), the “effect on rabusertib efficacy” value is “improves rabusertib efficacy”. Besides, the “synthetic lethality with Chk1i” value in the assay on RT4 cells is on record as “elicited Chk1 inhibitor synthetic lethality in a PD-L1-dependent manner”.

For `C[C@@H](O)[C@H]1C(=O)N2C(C(=O)O)=C(S[C@@H]3CN[C@H](C(=O)N(C)C)C3)[C@H](C)[C@H]12` [meropenem], the “synthetic lethality with Chk1i” value in the assay on RT4 cells is listed as “not induce synthetic lethality”.

For `COc1cccc(OCCCN)c1-c1cc(Nc2cnc(C#N)cn2)n[nH]1` [prexasertib], the “synthetic lethality in induced PD-L1^KO tumors” value in assay [5] was “exhibited synthetic lethality”.

For the origin of these results see patent publication US12404332B2, “Methods for diagnosing and treating cancers” (Research Development Foundation, priority 2020, dated 2025).
